What was measured:
TYK2 = TYK2 (Homo sapiens (Human), UniProt P29597); assay: JAK kinase assay (KINASE-GLO luminescent), TYK2 enzyme; assay type: biochemical; conditions: TYK2 enzyme 10 nM, Abl peptide substrate
Experimental: (§1) All compounds were initially prepared as 10 mM stocks in anhydrous dimethylsulfoxide (DMSO). […] Test compounds were then serially diluted 1:5 in DMSO for an 11-point concentration response and further diluted in the assay buffer bringing all compound concentrations to a final range of 100 μM to 10 μM in 2.5% DMSO. […] The reaction was initiated by the addition of 10 μL of 4× stock solution ATP (2 μM). Reactions were thoroughly mixed manually, covered, and allowed to incubate at room temperature for 75 min. Protein kinase activity was quantitated using Promega's KINASE-GLO™ luminescent Kinase Assay Kit according to the manufacturer's directions. ATP concentrations remaining in Test wells following the termination of the enzymatic reaction were compared against control wells containing equivalent amounts of DMSO containing no inhibitor (CTRL). […] Percent of Control (POC) values were determined for each concentration of compound tested according to the equation: […]
(§2) IC50 values were calculated using the following 4-parameter logistic curve-fitting algorithm:
(§3) Compounds were prepared in the exact same manner as described in the ROCK Kinase Assay with the exception to the substrate and enzyme. […] All other steps and solutions remain identical to the ROCK Kinase Assay above.

JAK1 = JAK1 (Homo sapiens (Human), UniProt P23458); assay: JAK kinase assay (KINASE-GLO luminescent), JAK1 enzyme; assay type: biochemical; conditions: JAK1 enzyme 10 nM, Abl peptide substrate
Chain of JAK1 (P23458 whole entry, species assumed): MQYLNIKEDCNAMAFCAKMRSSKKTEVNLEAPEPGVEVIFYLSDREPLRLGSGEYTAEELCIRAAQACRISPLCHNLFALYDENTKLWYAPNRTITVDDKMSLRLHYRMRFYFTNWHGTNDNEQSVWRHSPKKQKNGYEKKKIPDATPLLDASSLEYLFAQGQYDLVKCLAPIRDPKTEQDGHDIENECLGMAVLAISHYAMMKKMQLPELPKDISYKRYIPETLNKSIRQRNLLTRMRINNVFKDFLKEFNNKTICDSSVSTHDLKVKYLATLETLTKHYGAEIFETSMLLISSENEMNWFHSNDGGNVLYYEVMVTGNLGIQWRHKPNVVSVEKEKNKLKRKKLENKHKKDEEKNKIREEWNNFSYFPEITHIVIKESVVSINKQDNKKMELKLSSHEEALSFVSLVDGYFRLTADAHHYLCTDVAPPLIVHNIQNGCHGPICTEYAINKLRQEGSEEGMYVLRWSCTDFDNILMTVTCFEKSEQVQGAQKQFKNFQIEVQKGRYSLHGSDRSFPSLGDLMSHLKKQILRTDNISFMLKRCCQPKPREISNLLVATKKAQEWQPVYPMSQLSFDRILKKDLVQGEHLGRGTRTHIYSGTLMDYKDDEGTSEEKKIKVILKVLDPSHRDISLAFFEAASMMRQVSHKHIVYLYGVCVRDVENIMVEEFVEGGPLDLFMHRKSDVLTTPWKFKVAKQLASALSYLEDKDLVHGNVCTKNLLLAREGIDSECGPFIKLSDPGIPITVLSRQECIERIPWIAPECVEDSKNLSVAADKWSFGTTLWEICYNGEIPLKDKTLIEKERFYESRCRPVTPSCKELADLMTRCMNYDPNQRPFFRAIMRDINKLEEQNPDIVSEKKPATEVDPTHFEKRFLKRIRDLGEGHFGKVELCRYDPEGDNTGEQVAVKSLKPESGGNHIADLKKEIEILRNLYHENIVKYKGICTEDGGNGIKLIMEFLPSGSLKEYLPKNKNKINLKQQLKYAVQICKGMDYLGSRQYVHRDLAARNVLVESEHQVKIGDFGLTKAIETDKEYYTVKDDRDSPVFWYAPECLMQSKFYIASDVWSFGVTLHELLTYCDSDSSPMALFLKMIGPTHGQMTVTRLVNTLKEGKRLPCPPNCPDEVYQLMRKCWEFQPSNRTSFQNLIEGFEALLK
Experimental: as §1, §2, §3

Chain of TYK2 (P29597 whole entry, species assumed): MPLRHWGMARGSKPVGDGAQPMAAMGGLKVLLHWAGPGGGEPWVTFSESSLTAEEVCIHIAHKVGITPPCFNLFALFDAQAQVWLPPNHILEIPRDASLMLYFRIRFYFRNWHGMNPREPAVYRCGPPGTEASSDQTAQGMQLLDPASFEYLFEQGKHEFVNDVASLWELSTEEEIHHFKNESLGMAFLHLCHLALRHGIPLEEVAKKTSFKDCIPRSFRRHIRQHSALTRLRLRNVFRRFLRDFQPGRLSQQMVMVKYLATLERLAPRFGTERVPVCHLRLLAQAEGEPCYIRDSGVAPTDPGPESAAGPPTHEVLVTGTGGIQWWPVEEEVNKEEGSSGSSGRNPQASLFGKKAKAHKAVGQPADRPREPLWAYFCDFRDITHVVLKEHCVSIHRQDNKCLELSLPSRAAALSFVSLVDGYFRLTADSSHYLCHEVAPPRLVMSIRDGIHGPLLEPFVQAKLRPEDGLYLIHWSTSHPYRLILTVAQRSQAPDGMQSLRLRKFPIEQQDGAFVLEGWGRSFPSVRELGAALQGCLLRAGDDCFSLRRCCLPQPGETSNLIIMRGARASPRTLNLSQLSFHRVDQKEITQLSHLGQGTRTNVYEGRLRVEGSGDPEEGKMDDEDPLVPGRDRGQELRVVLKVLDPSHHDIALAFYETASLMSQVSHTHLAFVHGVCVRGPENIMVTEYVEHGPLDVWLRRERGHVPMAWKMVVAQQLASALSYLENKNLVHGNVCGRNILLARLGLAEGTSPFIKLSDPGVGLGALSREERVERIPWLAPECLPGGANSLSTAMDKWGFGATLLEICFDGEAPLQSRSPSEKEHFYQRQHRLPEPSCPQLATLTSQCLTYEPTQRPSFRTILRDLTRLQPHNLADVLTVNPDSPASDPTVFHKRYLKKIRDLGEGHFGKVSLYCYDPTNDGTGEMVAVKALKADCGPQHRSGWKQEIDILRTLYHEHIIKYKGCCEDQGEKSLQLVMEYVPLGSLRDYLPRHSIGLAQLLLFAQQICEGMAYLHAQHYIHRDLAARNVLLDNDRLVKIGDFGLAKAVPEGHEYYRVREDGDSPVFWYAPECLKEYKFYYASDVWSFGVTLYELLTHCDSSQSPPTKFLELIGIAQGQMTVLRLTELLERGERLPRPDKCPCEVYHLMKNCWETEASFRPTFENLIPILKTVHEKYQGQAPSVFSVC

| Structure (SMILES) | IC50 (TYK2) [nM] | IC50 (JAK1) [nM] |
| --- | --- | --- |
| Cc1cc(Nc2ncc(C)c(N3CC(CC#N)(N4CCN(C)CC4)C3)n2)sn1 [E5, 2-(1-(5-methyl-2-((3-methylisothiazol-5-yl)amino)pyrimidin-4-yl)-3-(4-methyl-piperazin-1-yl)azetidin-3-yl)acetonitrile] | < 10 | – |
| Cc1cc(Nc2ncc(C)c(N3CC(CC#N)C3)n2)sn1 [E6] | < 10 | – |
| Cc1cc(Nc2ncc(C)c(N3CC(CC#N)(N4CCOCC4)C3)n2)sn1 [E9] | < 10 | < 10 |
| Cc1cc(Nc2ncc(C)c(N3CC(CC#N)(N4CCCCC4)C3)n2)sn1 [E10] | – | < 10 |
| Cc1cc(Nc2ncc(C)c(N3CC(CC#N)(N4CC(C5CC5)C4)C3)n2)sn1 [E11] | < 10 | < 10 |
| Cc1cc(Nc2ncc(C)c(N3CC(CC#N)(N4CCC4)C3)n2)sn1 [E12] | < 10 | < 10 |
| Cc1cc(Nc2ncc(C)c(N3CC(CC#N)(N(C)C4CC4)C3)n2)sn1 [E13] | < 10 | < 10 |
| Cc1cc(Nc2ncc(C)c(N3CC(CC#N)(N4CCC(CCF)CC4)C3)n2)sn1 [E14] | < 10 | < 10 |
| Cc1cc(Nc2ncc(C)c(N3CC(CC#N)(N4CCCC(C)C4)C3)n2)sn1 (centres unmarked) [E15] | < 10 | < 10 |
| Cc1cc(Nc2ncc(C)c(N3CC(CC#N)(N4CC(C)CC(C)C4)C3)n2)sn1 (centres unmarked) [E16] | < 5 | < 5 |
| Cc1cc(Nc2ncc(C)c(N3CC(CC#N)(N4CCC(F)CC4)C3)n2)sn1 [E17] | < 10 | < 10 |
| Cc1cnc(Nc2cc(C3CC3)ns2)nc1N1CC(CC#N)(N2CCN(C)CC2)C1 [E18] | < 5 | < 5 |
| Cc1cc(Nc2ncc(C)c(N3CC(CC#N)(N4CC5CC(C5)C4)C3)n2)sn1 [E19] | < 10 | < 10 |
| Cc1cc(Nc2ncc(C)c(N3CC(CC#N)(N4CCC(CC(F)F)CC4)C3)n2)sn1 [E20] | < 10 | < 10 |
| Cc1cc(Nc2ncc(C)c(N3CC(CC#N)(N4CCCC5(CC5)C4)C3)n2)sn1 [E21] | < 10 | < 10 |
| Cc1cc(Nc2ncc(C)c(N3CC(CC#N)(N4CCC5(CC4)CC5(F)F)C3)n2)sn1 [E22] | < 10 | < 10 |
| Cc1cc(Nc2ncc(C)c(N3CC(CC#N)(N4CC(C)CC5(CC5)C4)C3)n2)sn1 (centres unmarked) [E23] | < 10 | < 10 |
| COc1cnc(Nc2cc(C)ns2)nc1N1CC(CC#N)(N2CCCCC2)C1 [E24] | < 50 | < 50 |
| Cc1cc(Nc2ncc(Cl)c(N3CC(CC#N)(N4CCCCC4)C3)n2)sn1 [E25] | < 10 | < 10 |
| Cc1cc(Nc2ncc(C)c(N3CC(CC#N)(N4CCC5(CC4)COC5)C3)n2)sn1 [E26] | < 10 | < 10 |
| Cc1cc(Nc2ncc(C)c(N3CC(CC#N)(N4CCCC5(C4)CC5(F)F)C3)n2)sn1 (centres unmarked) [E27] | < 10 | < 10 |
| Cc1cc(Nc2ncc(C)c(N3CC(CC#N)(N4CCC5(CC4)CN(C)C5)C3)n2)sn1 [E28] | < 50 | < 50 |
| Cc1cc(Nc2ncc(C)c(N3CC(CC#N)(N4CC5C(C4)C5(F)F)C3)n2)sn1 (centres unmarked) [E29] | < 10 | < 10 |

| Structure (SMILES) | IC50 (TYK2) [nM] | IC50 (JAK1) [nM] |
| --- | --- | --- |
| Cc1cc(Nc2ncc(C)c(N3CC(CC#N)(N4CC5CCC(C4)N5C)C3)n2)sn1 [E30] | < 10 | < 50 |
| Cc1cc(Nc2ncc(C)c(N3CC(CC#N)(N4CC5CC(C4)C5(F)F)C3)n2)sn1 [E31] | < 10 | < 10 |
| Cc1cc(Nc2ncc(C3CC3)c(N3CC(CC#N)(N4CCCCC4)C3)n2)sn1 [E32] | < 10 | < 50 |
| Cc1cc(Nc2ncc(C)c(N3CC(CC#N)(N4CCCCCC4)C3)n2)sn1 [E33] | < 10 | < 10 |
| Cc1cc(Nc2ncc(C)c(N3CC(CC#N)(N4C[C@@H](C)N(C)[C@@H](C)C4)C3)n2)sn1 [E34] | < 10 | < 50 |
| Cc1cc(Nc2ncc(C)c(N3CC(CC#N)(N4C[C@@H](C)N(C)[C@H](C)C4)C3)n2)sn1 [E35] | < 10 | < 50 |
| Cc1cc(Nc2ncc(C)c(N3CC(CC#N)(N4CCN(C)C(C)C4)C3)n2)sn1 (centres unmarked) [E36] | < 10 | < 10 |
| Cc1cc(Nc2ncc(C)c(N3CC(CC#N)(N(C)C4CN(C)C4)C3)n2)sn1 [E37] | < 50 | < 50 |
| Cc1cc(Nc2ncc(C)c(N3CC(CC#N)(N4CCN(C)C5(CC5)C4)C3)n2)sn1 [E38] | < 10 | < 10 |
| Cc1cc(Nc2ncc(C)c(N3CC(CC#N)(N4CCC5(CC4)CC5)C3)n2)sn1 [E39] | < 10 | < 10 |
| Cc1cc(Nc2ncc(C)c(N3CC(CC#N)(N4CCC(C5CC5(F)F)CC4)C3)n2)sn1 (centres unmarked) [E40] | < 10 | < 10 |
| Cc1cc(Nc2ncc(C)c(N3CC(CC#N)(N4CCCC5(COC5)C4)C3)n2)sn1 [E41] | < 10 | < 10 |
| Cc1cc(Nc2ncc(C)c(N3CC(CC#N)(N4CC5(CN(C)C5)C4)C3)n2)sn1 [E42] | < 1000 | < 1000 |
| Cc1cc(Nc2ncc(C)c(N3CC(CC#N)(N4CC(N(C)C)C4)C3)n2)sn1 [E43] | < 100 | < 150 |
| Cc1cc(Nc2ncc(C)c(N3CC(CC#N)(N4C[C@H](C)N(C)[C@@H](C)C4)C3)n2)sn1 [E44] | < 20 | < 50 |
| Cc1cc(Nc2nccc(N3CC(CC#N)(N4CCCCC4)C3)n2)sn1 [E45] | < 20 | < 200 |
| Cc1cc(Nc2ncc(C)c(N3CC(CC#N)(N4CCN(C)C5(COC5)C4)C3)n2)sn1 [E46] | < 10 | < 20 |
| Cc1cc(Nc2ncc(C)c(N3CC(CC#N)(N4CCC(CS(C)(=O)=O)CC4)C3)n2)sn1 [E47] | < 10 | < 10 |
| Cc1cc(Nc2ncc(C)c(N3CC(CC#N)(N4CCN(CC5CC5)CC4)C3)n2)sn1 [E48] | < 10 | < 10 |
| Cc1cc(Nc2ncc(C)c(N3CC(CC#N)(N4C5CCCC4C5)C3)n2)sn1 [E49] | < 20 | < 30 |
| Cc1cc(Nc2ncc(C)c(N3CC(CC#N)(N4C5CC4CN(C)C5)C3)n2)sn1 [E50] | < 400 | < 250 |
| Cc1cc(Nc2ncc(C)c(N3CC(CC#N)(N4CCN(CC(C)C)CC4)C3)n2)sn1 [E51] | < 20 | < 15 |
| Cc1cc(Nc2ncc(C)c(N3CC(CC#N)(N4CCN(C)[C@@H](C)C4)C3)n2)sn1 [E52A] | < 10 | < 20 |

| Structure (SMILES) | IC50 (TYK2) [nM] | IC50 (JAK1) [nM] |
| --- | --- | --- |
| Cc1cc(Nc2ncc(C)c(N3CC(CC#N)(N4CCN5C[C@@H](F)C[C@H]5C4)C3)n2)sn1 [E52B] | < 10 | < 10 |
| Cc1cc(Nc2ncc(C)c(N3CC(CC#N)(N4CCN(CC(C)(C)F)CC4)C3)n2)sn1 [E52D] | < 20 | < 10 |
| Cc1cc(Nc2ncc(C)c(N3CC(CC#N)(N4CCC5C(CC4)C5(F)F)C3)n2)sn1 (centres unmarked) [E52E] | < 10 | < 10 |
| Cc1cc(Nc2ncc(C)c(N3CC(CC#N)(N4CC5CC(C4)N5C)C3)n2)sn1 [E52F] | < 50 | < 100 |
| Cc1cc(Nc2ncc(C)c(N3CC(CC#N)(N4CCCN(C)CC4)C3)n2)sn1 [E52G] | < 50 | < 100 |
| Cc1cc(Nc2ncc(C)c(N3CC(CC#N)(NC4CN(C)C4)C3)n2)sn1 [E52H] | < 100 | < 100 |
| CCN1CCN(C2(CC#N)CN(c3nc(Nc4cc(C)ns4)ncc3C)C2)CC1 [E52] | < 10 | < 10 |
| Cc1cc(Nc2ncc(C)c(N3CC(CC#N)(N4CCN(C5CC5)CC4)C3)n2)sn1 [E54] | < 10 | < 10 |
| Cc1cc(Nc2ncc(C)c(N3CC(CC#N)(N4CCN(C(C)C)CC4)C3)n2)sn1 [E55] | < 50 | < 50 |
| Cc1cc(Nc2ncc(C)c(N3CC(CC#N)(N4CCN(CCF)CC4)C3)n2)sn1 [E55a] | < 10 | < 10 |
| Cc1cc(Nc2ncc(C)c(N3CC(CC#N)(N4CCN5CCC[C@@H]5C4)C3)n2)sn1 [E61a] | < 50 | < 50 |
| Cc1cc(Nc2ncc(C)c(N3CC(CC#N)(N4CCN5CCC[C@H]5C4)C3)n2)sn1 [E62a] | < 50 | < 50 |
| C#CCC1(O)CN(c2nc(Nc3cc(C)ns3)ncc2C)C1 [E63a] | < 50 | < 100 |
| Cc1cc(Nc2ncc(C)c(N3CC(CC#N)(N4CCN(C5CCC5)CC4)C3)n2)sn1 [E64a] | < 10 | < 10 |
| CCOC(=O)CC1(N2CCCCC2)CN(c2nc(Nc3cc(C)ns3)ncc2C)C1 [E65a] | < 50 | < 1000 |
| Cc1cc(Nc2ncc(C)c(N3CC(CCO)(N4CCCCC4)C3)n2)sn1 [E66a] | < 10 | < 50 |
| Cc1cc(Nc2ncc(C)c(N3CC(CC#N)(N4CCN5C[C@H](F)C[C@H]5C4)C3)n2)sn1 [E67a] | < 10 | < 10 |
| Cc1cc(Nc2ncc(C)c(N3CC(CC#N)(NCC4CN(C)C4)C3)n2)sn1 [E68a] | < 500 | < 500 |
| COC1CCN(C2(CC#N)CN(c3nc(Nc4cc(C)ns4)ncc3C)C2)CC1 [E69a] | < 10 | < 10 |
| Cc1cc(Nc2ncc(C)c(N3CC(CC#N)(N4CCN5C[C@@H](F)C[C@@H]5C4)C3)n2)sn1 [E70a] | < 10 | < 20 |
| CO[C@H]1C[C@H]2CN(C3(CC#N)CN(c4nc(Nc5cc(C)ns5)ncc4C)C3)CCN2C1 [E71a] | < 10 | < 10 |
